Test results reported in US20150018299A1, “TREATMENT OF LIVER CONDITIONS” (CAN-FITE BIOPHARMA LTD., priority 2012, published 2015).
Where “and” joins values, the source holds several entries; their conditions need not be identical. Equal entries are not always repeated.

Columns and labels:
[1] = test system: patients with advanced hepatocellular carcinoma (HCC); assay: Phase 1-2 dose-escalation study of oral CF102: overall survival and clinical activity; format: in vivo, human; settings: for Survival from start of CF102: individual subjects
Text: All patients were over the age of 18 with incurable advanced, refractory, or metastatic hepatocellular carcinoma (HCC), documented by cytology and/or histology for patients without underlying cirrhosis or according to the American Association for the Study of Liver Diseases Practice Guideline algorithm for patients with underlying cirrhosis. All patients had measurable disease, according to Response Evaluation Criteria in Solid Tumors (RECIST); […] The trial employed a conventional “three plus three” design. […] At the first stage nine patients were enrolled for the dose escalation phase and then additional nine were enrolled for the dose confirmation phase. Furthermore, nine patients have undergone intra-subject dose escalation per protocol. Subjects returned for a follow-up visit 28 days after completion of the last dose of study drug. […] Safety data analysis was conducted on all subjects who received at least one dose of CF102. The number and percentage of subjects who experienced one or more AEs were summarized by dose level group, relationship to study drug, and severity. AEs were coded using Medical Dictionary for Regulatory Activities (MedDRA) terminology. Clinical laboratory parameters were summarized using descriptive statistics, by post-dosing shifts relative to baseline, and data listings of clinically significant abnormalities. Vital signs and ECG data were summarized by changes from baseline values at each dose level using descriptive statistics. Pharmacokinetic parameters, including AUC (0-8 h), Cmax, Cmin, and Tmax was estimated. Comparisons across dose levels were made to assess proportionality. Overall survival was calculated using the Kaplan-Meier method.

[2] = test system: patients with hepatocellular carcinoma (HCC); assay: Phase 1-2 study of oral CF102: liver function parameters over 6 months; format: in vivo, human; settings: serum, over a 6 months period
Text: The trial employed a conventional “three plus three” design. […] At the first stage nine patients were enrolled for the dose escalation phase and then additional nine were enrolled for the dose confirmation phase. Furthermore, nine patients have undergone intra-subject dose escalation per protocol. Subjects returned for a follow-up visit 28 days after completion of the last dose of study drug.

[3] = human, in vivo
Text: The number and percentage of subjects who experienced one or more AEs were summarized by dose level group, relationship to study drug, and severity. AEs were coded using Medical Dictionary for Regulatory Activities (MedDRA) terminology. Clinical laboratory parameters were summarized using descriptive statistics, by post-dosing shifts relative to baseline, and data listings of clinically significant abnormalities. Vital signs and ECG data were summarized by changes from baseline values at each dose level using descriptive statistics. Pharmacokinetic parameters, including AUC (0-8 h), Cmax, Cmin, and Tmax was estimated. Comparisons across dose levels were made to assess proportionality. Overall survival was calculated using the Kaplan-Meier method.

## CNC(=O)[C@H]1O[C@@H](n2cnc3c(NCc4cccc(I)c4)nc(Cl)nc32)[C@H](O)[C@@H]1O [CF102, 2-Chloro-N^6-(3-iodobenzyl)-adenosine-5′-N-methyluronamide]
[1]; 12 sorafenib failures
  Overall survival, range: 3.5-13.2 months
[1]; 12 sorafenib failures, CF102 as second line therapy
  Median overall survival (OS): 7 months and 7.0 months
[1]; all 18 subjects
  Median overall survival (OS): 7.82 months and 7.8 months
  Overall survival, range: 3.5-27.3 months
[1]; five Child-Pugh B patients
  Median overall survival (OS): 8.1 months
  Overall survival, range: 7.0-13.2 months
[1]; starting dose 1 mg BID oral
  Survival from start of CF102: 7.1 months and 5.6 months and 13.2** months and 7.0 months and 8.2 months and 27.3* months
[1]; starting dose 5 mg BID oral
  Survival from start of CF102: 4.1 months and 7.1 months and 10.6 months and 10.7 months and 3.5 months and 4.2 months
[1]; starting dose 25 mg BID oral
  Survival from start of CF102: 8.3 months and 8.1 months and 7.6 months and 7.0 months and 12.6 months and 8.4 months
[1]; one subject
  Period of Stable Disease (SD) by RECIST criteria: 10 months
[1]; one subject, continuing on drug
  Time receiving CF102: ≥ 41 months
[2]
  Liver function parameters: ALT, AST, albumin, bilirubin, prothrombin time, ALK phosphatase, α-fetoprotein: remained stable
[3]
  Plasma levels: > 0.66 nM
